Legend:
GCN2 [1] = molecular target: T1, GCN2 (Homo sapiens, UniProt Q9P2K8); test: GCN2 enzyme assay (TR-FRET Lanthascreen, GFP-eIF2alpha phosphorylation); type: biochemical; conditions: 10 μM ATP, 80 nM GFP-eIF2a, 30 nM GCN2
Summary of the method: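 Kinase reaction with 10 μM ATP and 80 nM GFP-labelled eIF2alpha substrate at room temperature, stopped with EDTA. Phospho-eIF2alpha detected by TR-FRET between antibody and GFP-substrate, excitation at 340 nm.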
Target sequence in this assay (Q9P2K8 whole entry, species assumed): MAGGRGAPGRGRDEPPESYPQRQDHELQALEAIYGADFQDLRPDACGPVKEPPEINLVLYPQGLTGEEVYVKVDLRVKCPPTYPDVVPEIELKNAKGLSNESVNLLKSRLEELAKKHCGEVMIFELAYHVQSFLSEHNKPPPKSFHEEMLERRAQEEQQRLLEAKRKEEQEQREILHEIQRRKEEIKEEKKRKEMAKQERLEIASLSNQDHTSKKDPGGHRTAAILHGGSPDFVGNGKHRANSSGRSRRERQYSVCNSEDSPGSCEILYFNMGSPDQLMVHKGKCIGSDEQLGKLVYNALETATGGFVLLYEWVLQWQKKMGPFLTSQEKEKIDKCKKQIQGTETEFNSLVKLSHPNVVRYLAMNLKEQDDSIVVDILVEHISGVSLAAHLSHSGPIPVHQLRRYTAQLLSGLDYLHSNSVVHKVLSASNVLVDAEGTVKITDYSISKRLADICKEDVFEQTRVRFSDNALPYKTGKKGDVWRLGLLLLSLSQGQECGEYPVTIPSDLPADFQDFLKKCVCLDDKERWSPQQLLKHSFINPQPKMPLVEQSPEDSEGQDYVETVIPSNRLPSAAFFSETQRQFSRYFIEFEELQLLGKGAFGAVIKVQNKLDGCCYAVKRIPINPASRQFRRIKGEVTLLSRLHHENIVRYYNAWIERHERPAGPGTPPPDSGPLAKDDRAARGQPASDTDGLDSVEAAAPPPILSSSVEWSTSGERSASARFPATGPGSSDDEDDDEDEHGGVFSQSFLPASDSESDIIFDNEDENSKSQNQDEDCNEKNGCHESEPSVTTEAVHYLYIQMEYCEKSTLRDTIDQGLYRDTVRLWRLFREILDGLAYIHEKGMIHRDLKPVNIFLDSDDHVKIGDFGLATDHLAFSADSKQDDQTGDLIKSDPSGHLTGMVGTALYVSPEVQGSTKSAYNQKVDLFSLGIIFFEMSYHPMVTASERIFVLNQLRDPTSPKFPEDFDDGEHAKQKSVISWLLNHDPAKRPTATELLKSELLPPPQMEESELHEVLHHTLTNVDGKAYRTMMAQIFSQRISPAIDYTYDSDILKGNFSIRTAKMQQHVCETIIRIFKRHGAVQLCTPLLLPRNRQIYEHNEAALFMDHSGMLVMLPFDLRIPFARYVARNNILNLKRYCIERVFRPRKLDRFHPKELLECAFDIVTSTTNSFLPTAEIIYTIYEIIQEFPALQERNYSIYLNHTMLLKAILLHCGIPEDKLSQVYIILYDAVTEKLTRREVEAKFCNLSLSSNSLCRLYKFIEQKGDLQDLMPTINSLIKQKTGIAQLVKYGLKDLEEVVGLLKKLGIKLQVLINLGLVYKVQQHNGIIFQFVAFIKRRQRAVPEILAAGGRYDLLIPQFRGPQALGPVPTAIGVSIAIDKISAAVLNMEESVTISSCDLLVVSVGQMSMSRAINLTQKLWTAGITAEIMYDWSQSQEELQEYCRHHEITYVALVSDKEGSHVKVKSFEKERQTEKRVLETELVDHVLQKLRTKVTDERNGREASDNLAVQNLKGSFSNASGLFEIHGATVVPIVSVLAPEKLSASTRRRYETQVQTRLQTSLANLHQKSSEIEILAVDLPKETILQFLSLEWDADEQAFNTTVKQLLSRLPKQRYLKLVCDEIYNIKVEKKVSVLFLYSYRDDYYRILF

GCN2 [2] = molecular target: T1, GCN2; test: Cellular assay of GCN2 activity (phospho-eIF2alpha immunocytochemistry after tryptophanol); type: cell-based; parameters: endogenous in cells; host or cells: U2OS; conditions: Human U2OS cells, 2 h compound, 600 μM tryptophanol 30 min
Description: Cellular Assay for the Determination of Compound Activities
Human U2OS cells (2000 cells/well) are seeded into 384-well plates and incubated for 20 hours.
The next day, the cells are treated with the test compounds and incubated for 2 hours. Then, tryptophanol, at a final concentration of 600 μM, is added to the cells and those are incubated for 30 minutes.
The analysis of cellular GCN2 activities is done by immunocytochemistry.
Briefly, cells are fixated on the well surfaces by formaldehyde and permeabilised with Triton X-100.
The analysis and quantification of phosphorylated GCN2 is done by scanning the plates in the Acumen Explorer system (TTPLabtech). The obtained data are normalised against the untreated control wells (DMSO only) and expressed as % effect values. The determination of IC50 values is done by using the Graph Pad Prism software.
Target sequence in this assay (Q9P2K8 whole entry): as the sequence (Q9P2K8 whole entry, species assumed) above

GSK3α(h) = GSK3α(h) (Homo sapiens, UniProt P49840); test: GSK3α radiometric kinase assay (33P-ATP, phospho GS2 peptide); type: biochemical; conditions: read-out: IC50 GSK3α (enzyme assay)
Description: GSK3α(h) is incubated with 8 mM MOPS pH 7,0, 0,2 mM EDTA, 20 μM
[…](p)EDEEE (phosphor GS2 peptide), 10 mM Mg-acetate and [gamma-33P-ATP](specific activity approx. 500 cpm/Pmol, concentration as required). The reaction is initiated by the addition of the MgATP. After incubation for 40 minutes at the room temperature, the Reaction is stopped by the addition of 3% phosphoric acid solution. 10 μL of reaction is then spotted onto a P30 filtermat and washed three times for 5 minutes in 50 mM phosphoric acid and once in methanol prior to drying and scintillation counting.

GSK3α(h), sequence (P49840 whole entry): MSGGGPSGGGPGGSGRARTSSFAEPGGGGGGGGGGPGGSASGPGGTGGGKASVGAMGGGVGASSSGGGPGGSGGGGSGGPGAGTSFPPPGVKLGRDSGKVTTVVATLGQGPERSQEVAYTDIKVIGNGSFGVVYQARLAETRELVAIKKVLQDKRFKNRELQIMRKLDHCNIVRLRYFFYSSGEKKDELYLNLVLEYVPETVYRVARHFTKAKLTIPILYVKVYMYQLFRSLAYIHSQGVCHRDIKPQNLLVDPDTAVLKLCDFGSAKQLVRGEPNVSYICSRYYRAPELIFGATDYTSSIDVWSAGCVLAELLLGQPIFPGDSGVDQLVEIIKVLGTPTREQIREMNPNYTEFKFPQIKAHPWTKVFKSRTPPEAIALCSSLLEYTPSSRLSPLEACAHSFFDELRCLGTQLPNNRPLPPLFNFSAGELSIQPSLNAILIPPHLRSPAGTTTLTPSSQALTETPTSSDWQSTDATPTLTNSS

| SMILES | IC50 (GCN2 [1]) [nM] | IC50 (GCN2 [2]) [nM] | IC50 (GSK3α(h)) [nM] |
| --- | --- | --- | --- |
| Cn1cc(-c2ccc(-n3nnc4cnc(N[C@H]5CC[C@H](O)C5)nc43)cc2)cn1 (relative stereo) [A51, trans-3-{3-[4-(1-methyl-1H-pyrazol-4-yl)-phenyl]-3H-[1,2,3]triazolo[4,5-d]pyrimidin-5-ylamino}-cyclopentanol] | < 1000 | 1000 to 5000 |  |
| OCCn1cc(-c2ccc(-n3nnc4cnc(N[C@H]5CC[C@H](O)C5)nc43)cc2)cn1 (relative stereo) [A57, trans-3-(3-{4-[1-(2-hydroxy-ethyl)-1H-pyrazol-4-yl]-phenyl}-3H-[1,2,3]triazolo[4,5-d]pyrimidin-5-ylamino)-cyclopentanol] | < 1000 | 1000 to 5000 |  |
| COc1ccc(-n2nnc3cnc(NC4CC4)nc32)cc1 [A4, cyclopropyl-[3-(4-methoxy-phenyl)-3H-[1,2,3]triazolo[4,5-d]pyrimidin-5-yl]-amine] | < 1000 | < 1000 |  |
| COc1ccc(-n2nnc3cnc(N[C@H]4CC[C@H](CO)C4)nc32)cc1 [A111, {(1S,3S)-3-[3-(4-methoxy-phenyl)-3H-[1,2,3]triazolo[4,5-d]pyrimidin-5-ylamino]-cyclopentyl}-methanol] | < 1000 |  | < 1000 |
| COc1ccc(-n2nnc3cnc(N[C@@H]4CCN(C(=O)CCN5CCN(C)CC5)C4)nc32)cc1 [A132, 1-{(R)-3-[3-(4-methoxy-phenyl)-3H-[1,2,3]triazolo[4,5-d]pyrimidin-5-ylamino]-pyrrolidin-1-yl}-3-(4-methyl-piperazin-1-yl)-propan-1-one] | < 1000 |  | < 1000 |
| NC(=O)[C@H]1CC[C@@H](Nc2ncc3nnn(-c4ccc(N5CCCC5)cc4)c3n2)C1 [A138, (1S,3R)-3-[3-(4-pyrrolidin-1-yl-phenyl)-3H-[1,2,3]triazolo[4,5-d]pyrimidin-5-ylamino]-cyclopentanecarboxylic acid amide] | < 1000 |  | < 1000 |
| COc1ccc(-n2nnc3cnc(NCCCC(N)=O)nc32)cc1 [A142, 4-[3-(4-methoxy-phenyl)-3H-[1,2,3]triazolo[4,5-d]pyrimidin-5-ylamino]-butyramide] | < 1000 |  | < 1000 |
| COc1ccc(-n2nnc3cnc(N[C@H]4CC[C@H](C(N)=O)CC4)nc32)cc1 [A143, 4-[3-(4-methoxy-phenyl)-3H-[1,2,3]triazolo[4,5-d]pyrimidin-5-ylamino]-cyclohexanecarboxylic acid amide] | < 1000 |  | < 1000 |
| COc1ccc(-n2nnc3cnc(NC(C)CC(N)=O)nc32)cc1 (stereo not shown) [A144, 3-[3-(4-methoxy-phenyl)-3H-[1,2,3]triazolo[4,5-d]pyrimidin-5-ylamino]-butyramide] | < 1000 |  | < 1000 |
| NC(=O)[C@H]1CC[C@@H](Nc2ncc3nnn(-c4ccc5nsnc5c4)c3n2)C1 [A172, (1S,3R)-3-(3-benzo[1,2,5]thiadiazol-5-yl-3H-[1,2,3]triazolo[4,5-d]pyrimidin-5-ylamino)-cyclopentanecarboxylic acid amide] | < 1000 |  | < 1000 |
| COc1ccc(-n2nnc3cnc(N[C@@H]4CC[C@@H](C(N)=O)C4)nc32)cn1 [A173, (1R,3R)-3-[3-(6-methoxy-pyridin-3-yl)-3H-[1,2,3]triazolo[4,5-d]pyrimidin-5-ylamino]-cyclopentanecarboxylic acid amide] | < 1000 |  | < 1000 |
| NC(=O)[C@@H]1CC[C@@H](Nc2ncc3nnn(-c4ccc5nsnc5c4)c3n2)C1 [A174, (1R,3R)-3-(3-benzo[1,2,5]thiadiazol-5-yl-3H-[1,2,3]triazolo[4,5-d]pyrimidin-5-ylamino)-cyclopentanecarboxylic acid amide] | < 1000 |  | < 1000 |
| COc1ccc(-n2nnc3cnc(N[C@@H]4CC[C@@H](C(N)=O)C4)nc32)nc1 [A175, (1R,3R)-3-[3-(5-methoxy-pyridin-2-yl)-3H-[1,2,3]triazolo[4,5-d]pyrimidin-5-ylamino]-cyclopentanecarboxylic acid amide] | < 1000 |  | < 1000 |

Results, then the compound that gave them:

| IC50 (GCN2 [1]) [nM] | IC50 (GCN2 [2]) [nM] | IC50 (GSK3α(h)) [nM] | SMILES |
| --- | --- | --- | --- |
| < 1000 |  | < 1000 | O[C@@H]1CC[C@@H](Nc2ncc3nnn(-c4ccc(N5CCCC5)cc4)c3n2)C1 (relative stereo) [A198, (trans)-3-[3-(4-pyrrolidin-1-yl-phenyl)-3H-[1,2,3]triazolo[4,5-d]pyrimidin-5-ylamino]-cyclopentanol] |
| < 1000 |  | < 1000 | Cc1nc2ccc(-n3nnc4cnc(N[C@@H]5CC[C@@H](O)C5)nc43)cc2o1 (relative stereo) [A199] |
| < 1000 |  | < 1000 | O[C@@H]1CC[C@@H](Nc2ncc3nnn(-c4ccc5nsnc5c4)c3n2)C1 (relative stereo) [A200, (trans)-3-(3-benzo[1,2,5]thiadiazol-5-yl-3H-[1,2,3]triazolo[4,5-d]pyrimidin-5-ylamino)-cyclopentanol] |
| < 1000 |  | < 1000 | COc1ccc(-n2nnc3cnc(N[C@H]4CC[C@@H](S(C)(=O)=O)C4)nc32)cc1 (relative stereo) [A264, ((cis)-3-methanesulfonyl-cyclopentyl)-[3-(4-methoxy-phenyl)-3H-[1,2,3]triazolo[4,5-d]pyrimidin-5-yl]-amine] |
| < 1000 |  | < 1000 | O[C@@H]1CC[C@@H](Nc2ncc3nnn(-c4ccc(-c5cnn(CCc6nnn[nH]6)c5)cc4)c3n2)C1 (relative stereo) [A266, trans-3-[3-(4-{1-[2-(1H-Tetrazol-5-yl)-ethyl]-1H-pyrazol-4-yl}-phenyl)-3H-[1,2,3]triazolo[4,5-d]pyrimidin-5-ylamino]-cyclopentanol] |
| < 1000 | 5000 to 10000 |  | O[C@@H]1CC[C@@H](Nc2ncc3nnn(-c4ccc(OC[C@H](O)C(F)(F)F)cc4)c3n2)C1 (stereo in doubt) [A205, (trans)-3-{3-[4-((S)-3,3,3-trifluoro-2-hydroxy-propoxy)-phenyl]-3H-[1,2,3]triazolo[4,5-d]pyrimidin-5-ylamino}-cyclopentanol] |
| < 1000 |  | < 1000 | NC(=O)[C@@H]1CC[C@@H](Nc2ncc3nnn(-c4cccc(I)c4)c3n2)C1 [A176, (1R,3R)-3-[3-(3-iodo-phenyl)-3H-[1,2,3]triazolo[4,5-d]pyrimidin-5-ylamino]-cyclopentanecarboxylic acid amide] |
| < 1000 |  | < 1000 | NC(=O)[C@@H]1CC[C@@H](Nc2ncc3nnn(-c4ccc(-c5cnn(CCc6nnn[nH]6)c5)cc4)c3n2)C1 [A265, (1R,3R)-3-[3-(4-{1-[2-(1H-tetrazol-5-yl)-ethyl]-1H-pyrazol-4-yl}-phenyl)-3H-[1,2,3]triazolo[4,5-d]pyrimidin-5-ylamino]-cyclopentanecarboxylic acid amide] |
| < 1000 |  | < 1000 | COc1ccc(-n2nnc3cnc(N[C@@H]4CCN(S(N)(=O)=O)C4)nc32)cc1 [A270, (R)-3-[3-(4-methoxy-phenyl)-3H-[1,2,3]triazolo[4,5-d]pyrimidin-5-ylamino]-pyrrolidine-1-sulfonic acid amide] |
| < 1000 |  | < 1000 | Cn1cc(-c2ccc(-n3nnc4cnc(N[C@@H]5CCN(C(=O)CCCN6CCNCC6)C5)nc43)cc2)cn1 [A271, 1-((R)-3-{3-[4-(1-methyl-1H-pyrazol-4-yl)-phenyl]-3H-[1,2,3]triazolo[4,5-d]pyrimidin-5-ylamino}-pyrrolidin-1-yl)-4-piperazin-1-yl-butan-1-one] |
